Experimental data reported in patent US8871900B2, “Fibroblast growth factor (FGF) analogs and uses thereof” (University of Rochester, priority 2008, dated 2014).
Peptide text beside a SMILES is read from it.

Tests used:
[1] = Toxicity of FGF-P (LD50/14 experiments); assay type: in vivo, mouse (Balb/c)
Procedure: Standard LD50/14 experiments have been performed. Up to 400 mg/kg of FGF-P was injected into Balb/c mice. No obvious signs of illness were observed. […] Thus, even the maximum NOAEL (no observed adverse effect level) could not be found. […] This observation is not surprising since similar observations have been made previously with human FGF-2 in mice (9-14) Likewise, it has been shown that in various disease states the level of FGF in humans is commonly 100 times the normal baseline.
A useful mitigator can be effective even given 8-24 hours IR exposure because of the time required for distribution. Therefore, FGF-P given at 8 hour after 7.1 Gy IR was tested.

ERK Pathway = test: Phosphorylation of ERK pathway; assay type: cell-based
[2] = test system: epithelial cells (SW480, a cell line from colon); test: Growth bioassay, epithelial cells; assay type: cell-based; settings: FGF-P added to culture media
Procedure: (§1) These clusters can be counted thus allowing for measurement of relative binding coefficients. To test the feasibility of binding coefficient measurement, competition experiments were performed. Free FGF-P (30 ug/ml) was added to cells for 20 min and then the biotin-FGF-P (1 μg/mL) was added. One hour later, the streptavidin-FITC was added and analyzed by flow cytometry. […] In a third test, a bioassay was performed. FGF-P was added to culture media of two types of cells: endothelial cells (adult bovine aorta endothelium) and epithelial cells (SW480, a cell line from colon).
Three preliminary experiments were carried out using FGF-P in vitro to confirm its activity. First, the biotin conjugated FGF-P was used as a tool to examine cell surface binding. AsPC-1 pancreatic cancer epithelial cells are known to have high levels of FGFR and were used for this study. ASPC-1 cells were incubated with 1 μg/ml of biotin-FGF-P and then labeled with streptavidin-FITC. The cells were then analyzed using an imaging flow cytometer (Amnis Imagestream). This device can image each cell as it passes through the laser, and it can then sort cells according to both staining and morphological characteristics. […] These clusters were counted, allowing for measurement of relative binding coefficients. […] One hour later, streptavidin-FITC was added and analyzed by flow cytometry. […]

[3] = test system: FGFR on AsPC-1 pancreatic cancer epithelial cells; test: Cell surface binding of biotin-FGF-P, imaging flow cytometry (Amnis Imagestream)
Procedure: Three preliminary experiments were carried out using FGF-P in vitro to confirm its activity. First, the biotin conjugated FGF-P was used as a tool to examine for cell surface binding. AsPC-1 pancreatic cancer epithelial cells are known to have high levels of FGFR and were used for this study. ASPC1 cells were incubated with 1 μg/ml of biotin-FGF-P and then labeled with streptavidin-FITC. The cells were then analyzed using an imaging flow cytometer (Amnis Imagestream). This device can image each cell as it passes through the laser, it can then sort cells according to both staining and morphological characteristics.
as §1, with “FGF-P was added to culture media of two types of cells: endothelial cells (adult bovine aorta endothelium) and epithelial cells (SW480, a cell line from colon).” left out
Three preliminary experiments were carried out using FGF-P in vitro to confirm its activity. […] The cells were then analyzed using an imaging flow cytometer (Amnis Imagestream). […] These clusters were counted, allowing for measurement of relative binding coefficients. […] One hour later, streptavidin-FITC was added and analyzed by flow cytometry. […]

irradiated human cells = test: Responsiveness of irradiated human cells; assay type: cell-based
[4] = Plasma endotoxin (LPS) after TBI; assay type: in vivo, mouse; settings: IR mice
Text: This relates with the FGF-P promotion of WBC regeneration. The low endotoxin indicates a low probability of endothelium damage and less consumption of platelet, which promotes the recovery of homeostasis of TBI mice.

[5] = test system: BM cells (megakaryocyte colony); test: Megakaryocyte colony formation of BM cells (MegaCult-C); assay type: cell-based, mouse (Balb/c); settings: cytokine cocktail reduced to 50%; FGF-P 100 ng/ml
Text: Survival of ARS depends on rapid reconstitution of hematopoiesis after IR-induced myelosuppression. […] However, the timing and mechanism of effect on BM stem cells is unknown. Also unclear are the number of FGFRs on hematopoietic stem cells (HSCs) and their role in reconstitution after IR. […] To characterize the effects of FGF-P on BM, the study approach was to obtain fresh BM (including both HSCs and MSCs) from Balb/c mice, and culture it under varying conditions (3 D culture or 2 D round-bottom well) in triplicate for 1-3 weeks. The BM cells were stimulated with FGF-P at different doses (as test) or with EPO, TPO, GM-CSF or native FGF2 (as a positive control). The cultures were examined using several methods including colony count, photography, CyQUANT® assay and ^3H-TdR incorporation.

human FGFR1 = human FGFR1 (Homo sapiens, UniProt P11362); test: Biacore binding assay
Cdc42, Rac1, Mapk10, Cfl = test: Gene expression in irradiated BM cells (Luminex multiplex array); assay type: cell-based, mouse; settings: treatment 20 min after 5 Gy IR, 6 hours, P<0.05

Chain of human FGFR1 (P11362 22-822): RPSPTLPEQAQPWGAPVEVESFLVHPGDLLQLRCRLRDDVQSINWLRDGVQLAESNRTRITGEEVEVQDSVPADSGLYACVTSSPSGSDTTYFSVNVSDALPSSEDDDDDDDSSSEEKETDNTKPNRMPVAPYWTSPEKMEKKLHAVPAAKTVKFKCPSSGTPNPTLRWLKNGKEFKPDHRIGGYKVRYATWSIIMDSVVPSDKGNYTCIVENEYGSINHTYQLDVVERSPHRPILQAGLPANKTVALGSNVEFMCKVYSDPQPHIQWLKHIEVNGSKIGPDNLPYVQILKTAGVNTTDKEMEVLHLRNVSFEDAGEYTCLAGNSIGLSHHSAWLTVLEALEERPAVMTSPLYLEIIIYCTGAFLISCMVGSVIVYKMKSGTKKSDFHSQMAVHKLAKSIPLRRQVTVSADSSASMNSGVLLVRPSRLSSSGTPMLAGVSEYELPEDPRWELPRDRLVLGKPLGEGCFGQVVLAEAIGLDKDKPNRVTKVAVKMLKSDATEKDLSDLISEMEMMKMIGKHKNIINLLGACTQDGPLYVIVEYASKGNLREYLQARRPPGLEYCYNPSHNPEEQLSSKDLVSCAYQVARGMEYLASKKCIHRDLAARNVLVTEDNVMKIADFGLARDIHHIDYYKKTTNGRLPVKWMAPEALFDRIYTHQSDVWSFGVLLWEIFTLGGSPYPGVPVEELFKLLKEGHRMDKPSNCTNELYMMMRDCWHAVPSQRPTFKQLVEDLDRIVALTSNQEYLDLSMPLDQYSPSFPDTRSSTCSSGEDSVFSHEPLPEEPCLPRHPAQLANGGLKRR

SMILES: CC(C)C[C@H](NC(=O)[C@H](C)NC(=O)[C@@H](NC(=O)[C@H](Cc1ccc(O)cc1)NC(=O)[C@H](Cc1c[nH]c2ccccc12)NC(=O)[C@H](CO)NC(=O)[C@H](CO)NC(=O)[C@H](Cc1ccc(O)cc1)NC(=O)[C@H](CCCCN)NC(=O)[C@H](CCCNC(=N)N)NC(=O)[C@H](CO)NC(=O)[C@H](CCCNC(=N)N)NC(=O)[C@H](Cc1ccc(O)cc1)NC(=O)[C@@H](N)CS)C(C)C)C(=O)N[C@@H](CCCCN)C(=O)N[C@@H](CCCNC(=N)N)C(=O)N[C@@H](CS)C(=O)O [FGF-P, CYRSRKYSSWYVALKRC] (H-CYRSRKYSSWYVALKRC-OH; N-terminus and C-terminus assumed)
- body weight ([1]; Balb/c mice, up to 400 mg/kg): body weight did not decrease
- dose tolerated well without any signs of sickness ([1]; mice): up to 4 gram/kg
- NOAEL at 14 days ([1]; mouse, in vivo, Balb/c mice, LD50/14 experiments, read-out: injected dose with no obvious signs of illness (maximum NOAEL could not be found)): ≤ 400 mg/kg
- phosphorylation of ERK pathway (ERK Pathway): triggers phosphorylation of ERK Pathway
- growth of epithelium [2]: stimulated the growth of both endothelium and epithelium
- cell surface binding ([3]; AsPC-1 cells, 1 μg/ml biotin-FGF-P, streptavidin-FITC): bound to the cell surface and causes the aggregation of FGFR
- competition with biotin-FGF-P for cell surface binding ([3]; free FGF-P 30 ug/ml for 20 min, then biotin-FGF-P 1 μg/mL): competed with biotin-FGF-P for cell surface binding
- responsiveness of irradiated human cells (irradiated human cells): maintain their responsiveness to FGF-P
- plasma level of endotoxin (LPS) [4]: reduced the LPS level
- megakaryocyte colony formation [5]: greatly stimulated the formation of megakaryocyte colony to the level as native FGF2
- binding to human FGFR1 (human FGFR1): binding of FGF-P to human FGFR1
- expression of Cdc42 (Cdc42, Rac1, Mapk10, Cfl): reversed the IR-suppressed expression
- expression of Cfl (cofilin 1) (Cdc42, Rac1, Mapk10, Cfl): suppressed towards normal
- expression of Mapk10 (Cdc42, Rac1, Mapk10, Cfl): suppressed towards normal
- expression of Rac1 (Cdc42, Rac1, Mapk10, Cfl): reversed the IR-suppressed expression
